# Data taken from patent US7892350B2, “Sacrificial agents for fly ash concrete” (Boral Material Technologies Inc., priority 2003, dated 2011).
# Like-named read-outs stand apart in the source and are kept apart here.
# Assay: Second sacrificial agent testing protocol: paste air measurements with DDBS (0.0125 wt %) and rating; as to Overall performance rating (second protocol rating): key: 0: Fail; 1: Poor; 2: Good; 3: Preferred; 4: Most preferred; as to SA Rating (0-4): key: 0: Fail; 1: Poor; 2: Good; 3: Preferred; 4: Most preferred
# Description: The second sacrificial agents evaluation protocol has been designed to assess the relative potential value of candidate sacrificial agents with a maximum of five paste air measurements.
# The first two measurements (of entrained air) are carried out with a standard AEA in a portland cement paste and in a FA:cement paste; these two tests provide reference values which can be used for the relative assessment of a series of sacrificial agents. The other three paste air measurements pertain to the properties and effectiveness of the sacrificial agents.
# 1. Measurement of the air entrained by a standard air-entraining admixture in a cement paste of fixed composition and fluidity; the latter is a reference system which provides ‘reference’ air entrainment values (‘A’ in FIG. 8).
# 2. […] The difference between ‘B’ and ‘A’ in FIG. 8 is the reduction in air entrainment due to the presence of the fly ash; this is illustrated as ‘C’ in FIG. 8.
# In the present SA testing and evaluation protocol, the fly ash selected should remain the same for the entire set of additives tested, in order to provide reliable relative performance ranking. For the present series of test, the Fly Ash selected was the one identified as B1 in Table 1 below; the physico-chemical properties of this fly ash are reported in Table 1.
# In testing for the relative performance of the sacrificial agent, the sacrificial agent dosage was chosen in the range 0-0.1 wt %, which corresponds to typical dosage values observed in paste, mortar and concrete tests reported in Tables 2, 3 and 4 and Tables 7 to 34.
# 3. Measurement of the air entrainment of the SA, by itself, in a cement-only paste at a dosage of 0.1 wt %; this is illustrated as ‘D’ in FIG. 8.
# 4. Measurement of the air entrained by DDBS in the FA-cement paste comprising 0.05% wt SA, under the same conditions as described in 2 above. The air entrainment value observed in this system, compared to that observed in the absence of the SA, yields the air recovery due to the SA, and is illustrated schematically as ‘E’ in FIG. 8.
# 5. Same as in 4 above, but with a higher SA concentration at 0.1 wt %; the air entrainment observed, again compared to the value observed in the absence of the SA, yields a second value of air recovery by the SA and is illustrated as ‘F’ in FIG. 8.
# For the relative performance rating of the group of products chosen as potential SA and listed in Table 36, the following rating scheme (Tables A and B) was adopted (referring to FIG. 8 and quantities defined therein):
# 1: Chemical name of compound tested as potential sacrificial agent • Col. 2: Level of air entrainment by the candidate sacrificial agent, at a concentration of 0.1 wt %, in a Portland cement paste ([…]) • Col. […] 5: Sacrificial agent overall rating index (described below) • Col. 6: Hydrophilic-Lipophilic Balance (HLB) values of candidate sacrificial agent (source and significance of HLB data given below) • Col. 7: Logarithm of the Oil(octanol)/water partition coefficient (Kow) of the candidate sacrificial agents (source and significance of data given below).
# [1] = Portland cement paste (PCA), […]
# [2] = sacrificial agent overall rating index
# [3] = B1 FA/cement paste, 0.0125 wt % DDBS, 0.05 wt % SA
# [4] = B1 FA/cement paste, 0.0125 wt % DDBS, 0.10 wt % SA
# [5] = sum of ratings of air entrainment recovery by 0.05% and 0.1% SA, DDBS 0.0125 wt %, 50:50 B1 fly ash:cement paste
Compound,Overall performance rating (second protocol rating),"B1 + 0.0125% DDBS + 0.05% SA (air entrainment) (B1 FA/cement paste, […])","B1 + 0.0125% DDBS + 0.1% SA (air entrainment) (B1 FA/cement paste, […])",PCA + 0.1% SA (level of air entrainment by the candidate sacrificial agent) [1],SA Rating (0-4) [2],B1 + 0.0125% DDBS + 0.05% SA (air entrainment),B1 + 0.0125% DDBS + 0.1% SA (air entrainment),PCA + 0.1% SA (level of air entrainment by the candidate sacrificial agent),SA Rating (0-4),B1 + 0.0125% DDBS + 0.05% SA (air entrainment) [3],B1 + 0.0125% DDBS + 0.1% SA (air entrainment) [4],Overall performance rating (second protocol rating) [5]
CCCCN [n-butyl amine],4,5.7,8.1,1.2,4,,,,,,,
"O=S(=O)([O-])c1ccc2cc(S(=O)(=O)[O-])ccc2c1.[Na+].[Na+] [2,6-naphthalene disulfonate Na]",,,,,,2.3,3.0,0.0,0,,,
CCCCCCCCCCO [1-Decanol],,2.1,1.7,0.0,0,,,,,,,
CCCCOCCO [Ethylene Glycol n-Butyl Ether],4,8.8,9.5,2.0,4,,,,,,,
CCCCCC(=O)O [Hexanoic acid],4,5.1,4.9,2.4,4,,,,,,,
CCCCCCCC(=O)OC [Methyloctanoate],,,,0.0,2,,,,,4.8,2.2,2
O=S(=O)(O)c1ccc(O)cc1 [4-Hydroxybenzenesulfonic acid],,,,0.1,0,,,,,2.1,2.0,
CC(O)COc1ccccc1 (stereo not drawn) [Propylene Glycol Phenyl Ether],,,,1.0,4,,,,,7.2,6.7,4
"O=C(O)c1cc(O)ccc1O [2,5-Dihydroxybenzoic acid]",,1.9,1.6,0.0,0,,,,,,,
NC(N)=O [Urea],2,,2.0,0.1,2,,,,,,,
CCN1CCCC1=O [1-Ethyl-2-Pyrrolidinone],3,4.3,5.6,2.5,3,,,,,,,
CCCC=O [Butyraldehyde],2,4.0,4.0,0.0,2,,,,,,,
CCOCCO [Ethylene Glycol Ethyl Ether],4,5.0,6.8,1.2,4,,,,,,,
CCC(C)=O [2-Butanone (Methyl ethyl ketone)],,3.7,4.1,0.3,1,,,,,,,
CCOCCOC(C)=O [E.G. mono-ethyl ether acetate],,,,,,4.7,4.7,0.0,2,,,
O=C(O)c1ccc2ccccc2c1 [2-Naphthoic acid],,,,1.3,1,,,,,3.2,4.2,1
Polyethylene glycol 400,,,,,,,,,,,,4
CC[N+](CC)(CC)CC.[OH-] [Tetraethyl ammonium hydroxide],,,,,,2.3,3.0,0.1,0,,,
OCCc1ccccc1 [Phenyl ethyl alcohol],3,4.5,5.5,0.7,3,,,,,,,
CCCN(CCC)CCC [Tripropylamine],,2.6,2.4,0.3,0,,,,,,,
O=P([O-])([O-])O.[Na+].[Na+] [Sodium phosphate dibasic],,,,0.0,0,,,,,2.1,2.3,
CC(C)O [i-Propanol],1,3.7,4.1,2.4,1,,,,,,,
O=C(O)Cc1ccccc1 [Phenyl acetic acid],1,2.8,4.2,0.2,1,,,,,,,
O=C(O)c1ccc(O)cc1 [4-Hydroxybenzoic acid],,2.1,2.4,1.0,0,,,,,,,
CC(=O)CC(C)C [Methyl isobutylketone],,,,,,,,,,,,2
COP(=O)([O-])OC.[Na+] [Dimethylphosphate Na],,2.5,2.7,1.3,0,,,,,,,
1-Octanol,,,,0.0,0,,,,,2.1,1.4,
